Test results taken from ChEMBL document CHEMBL5137022, “Antitumor Activity of Rutaecarpine in Human Colorectal Cancer Cells by Suppression of Wnt/β-Catenin Signaling” (J Nat Prod, 2022).
Calls of active or inactive are those of the source. The rule behind the calls is not given here.

Experiments:
LS174T [1] = experiment: Induction of cell cycle arrest in human LS174T cells assessed as accumulation of cells at sub-G1 phase at 20 uM measured at 12 hrs by RNase A/propidium iodide staining based flow cytometric analysis (reference value: 0.7 %); type: functional
RKO = experiment: Antiproliferative activity against human RKO cells harboring wild type beta-catenin assessed as reduction in cell viability measured after 72 hrs by SRB assay; type: functional, cell-based
SW480 = experiment: Antiproliferative activity against human SW480 cells harboring wild type beta-catenin assessed as reduction in cell viability measured after 72 hrs by SRB assay; type: functional, cell-based; conditions: SW480, 72 h
CCD-841CoN = experiment: Antiproliferative activity against human CCD-841CoN cells assessed as reduction in cell viability measured after 72 hrs by SRB assay; type: functional, cell-based
LS174T [2] = experiment: Inhibition of Wnt/beta-catenin transactivation signalling in human LS174T cells transfected with renilla luciferase and TOPFlash reporter gene incubated for 24 hrs by dual-luciferase assay; type: cell-based; conditions: dose 2.5-20 µM, DDE = dose-dependent effect
LS174T [3] = experiment: Downregulation of c-Myc expression in human LS174T cells at 2.5 to 20 uM incubated for 24 hrs by Western blot analysis; type: functional, cell-based; conditions: dose 2.5-20 µM
LS174T [4] = experiment: Downregulation of cyclin D1 expression in human LS174T cells at 2.5 to 20 uM incubated for 24 hrs by Western blot analysis; type: functional, cell-based; conditions: dose 2.5-20 µM
LS174T [5] = experiment: Induction of cell cycle arrest in human LS174T cells assessed as accumulation of cells at sub-G1 phase at 10 uM measured after 24 hrs by RNase A/propidium iodide staining based flow cytometric analysis (reference value: 1.3 %); type: functional
LS174T [6] = experiment: Induction of cell cycle arrest in human LS174T cells assessed as accumulation of cells at G0/G1 phase at 10 uM measured after 24 hrs by RNase A/propidium iodide staining based flow cytometric analysis (reference value: 71.7 %); type: functional
LS174T [7] = experiment: Induction of cell cycle arrest in human LS174T cells assessed as accumulation of cells at S phase at 10 uM measured after 24 hrs by RNase A/propidium iodide staining based flow cytometric analysis (reference value: 14.5 %); type: functional
LS174T [8] = experiment: Induction of cell cycle arrest in human LS174T cells assessed as accumulation of cells […] at 20 uM measured after 24 hrs by RNase A/propidium iodide staining based flow cytometric analysis (reference value: 1.3 %); type: functional
LS174T [9] = experiment: Induction of cell cycle arrest in human LS174T cells assessed as accumulation of cells at G2/M phase at 20 uM measured after 24 hrs by RNase A/propidium iodide staining based flow cytometric analysis (reference value: 12.2 %); type: functional
LS174T [10] = experiment: Induction of cell cycle arrest in human LS174T cells assessed as downregulation of CDK2 expression measured after 24 hrs by Western blot analysis; type: functional, cell-based; conditions: dose 5-20 µM, DDE = dose-dependent effect
LS174T [11] = experiment: Induction of cell cycle arrest in human LS174T cells assessed as upregulation of p21 expression measured after 24 hrs by Western blot analysis; type: functional, cell-based; conditions: dose 5-20 µM, DDE = dose-dependent effect
LS174T [12] = experiment: Induction of cell cycle arrest in human LS174T cells assessed as accumulation of cells at S phase at 20 uM measured at 12 hrs by RNase A/propidium iodide staining based flow cytometric analysis (reference value: 11.4 %); type: functional
LS174T [13] = experiment: Induction of cell cycle arrest in human LS174T cells assessed as accumulation of cells at G2/M phase at 20 uM measured at 12 hrs by RNase A/propidium iodide staining based flow cytometric analysis (reference value: 12.9 %); type: functional
LS174T [14] = experiment: Induction of cell cycle arrest in human LS174T cells assessed as accumulation of cells at G0/G1 phase at 20 uM measured at 24 hrs by RNase A/propidium iodide staining based flow cytometric analysis (reference value: 74.8 %); type: functional
LS174T [15] = experiment: Induction of cell cycle arrest in human LS174T cells assessed as accumulation of cells at sub-G1 phase at 20 uM measured at 36 hrs by RNase A/propidium iodide staining based flow cytometric analysis (reference value: 0.7 %); type: functional
LS174T [16] = experiment: Induction of cell cycle arrest in human LS174T cells assessed as accumulation of cells at G0/G1 phase at 20 uM measured at 36 hrs by RNase A/propidium iodide staining based flow cytometric analysis (reference value: 74.8 %); type: functional
LS174T [17] = experiment: Induction of cell cycle arrest in human LS174T cells assessed as accumulation of cells at G2/M phase at 20 uM measured at 36 hrs by RNase A/propidium iodide staining based flow cytometric analysis (reference value: 12.9 %); type: functional
LS174T [18] = experiment: Induction of cell cycle arrest in human LS174T cells assessed as accumulation of cells at sub-G1 phase at 20 uM measured at 48 hrs by RNase A/propidium iodide staining based flow cytometric analysis (reference value: 0.7 %); type: functional
LS174T [19] = experiment: Induction of cell cycle arrest in human LS174T cells assessed as accumulation of cells at S phase at 20 uM measured at 48 hrs by RNase A/propidium iodide staining based flow cytometric analysis (reference value: 11.4 %); type: functional
LS174T [20] = experiment: Induction of cell cycle arrest in human LS174T cells assessed as accumulation of cells at G2/M phase at 20 uM measured at 48 hrs by RNase A/propidium iodide staining based flow cytometric analysis (reference value: 12.9 %); type: functional
LS174T [21] = experiment: Induction of apoptosis in human LS174T cells assessed as upregulation of cleaved PARP expression measured after 48 hrs by Western blot analysis; type: functional, cell-based; conditions: dose 20-40 µM, DDE = dose-dependent effect
LS174T [22] = experiment: Inhibition of cell invasion in human LS174T cells incubated for 24 hrs by transwell assay; type: functional, cell-based; conditions: dose 2-8 µM, DDE = dose-dependent effect
LS174T [23] = experiment: Downregulation of N-cadherin expression in human LS174T cells at up to 8 uM incubated for 24 hrs by Western blot analysis; type: functional, cell-based
LS174T [24] = experiment: Antitumor activity against human LS174T cells xenografted in BALB/c nude mouse assessed as reduction in tumor weight at 10 mg/kg, ip administered 3 times per week for 21 days by electronic caliper method; type: functional; parameters: scale not given: the % may be the effect or the level left; conditions: time 21 day
[25] = Toxicity in BALB/c nude mouse xenografted with human LS174T cells assessed as effect on body weight at 30 mg/kg, IP administered 3 times per week for 21 days; type: organism-based; conditions: in vivo, 504 h, time 21 day
Mus musculus [26] = experiment: Downregulation of c-myc protein expression in tumor of BALB/c mouse xenografted with human LS174T cells at 10 to 30 mg/kg, ip administered 3 times per week for 21 days by Western blot analysis; type: functional, organism-based; conditions: dose 10-30 mg/kg, time 21.0 day
Mus musculus [27] = experiment: Downregulation of survivin expression in tumor of BALB/c mouse xenografted with human LS174T cells at 10 to 30 mg/kg, ip administered 3 times per week for 21 days by Western blot analysis; type: functional, organism-based; conditions: dose 10-30 mg/kg, time 21.0 day
Mus musculus [28] = experiment: Downregulation of Ki-67 expression in tumor of BALB/c mouse xenografted with human LS174T cells at 10 to 30 mg/kg, ip administered 3 times per week for 21 days by immunohistochemical based analysis; type: functional, organism-based; conditions: dose 10-30 mg/kg, time 21.0 day
Mus musculus [29] = experiment: Downregulation of N-cadherin expression in tumor of BALB/c mouse xenografted with human LS174T cells at 10 to 30 mg/kg, ip administered 3 times per week for 21 days by immunohistochemical based analysis; type: functional, organism-based; conditions: dose 10-30 mg/kg, time 21.0 day

SMILES: O=c1c2ccccc2nc2n1CCc1c-2[nH]c2ccccc12 [RUTAECARPINE]
- Activity (LS174T [1]): 0.5%
- IC50 (RKO): > 50 µM
- IC50 (SW480): > 50 µM
- IC50 (CCD-841CoN): > 50 µM
- inhibition (LS174T [2]): Dde
- Activity (LS174T [3]): Active
- Activity (LS174T [4]): Active
- Activity (LS174T [5]): 1.3%
- Activity (LS174T [6]): 81.6%
- Activity (LS174T [7]): 7.2%
- Activity (LS174T [8]): 1.5%
- Activity (LS174T [9]): 7%
- Activity (LS174T [10]): Dde
- Activity (LS174T [11]): Dde
- Activity (LS174T [12]): 2.4%
- Activity (LS174T [13]): 16.8%
- Activity (LS174T [14]): 89.5%
- Activity (LS174T [15]): 6.1%
- Activity (LS174T [16]): 87.4%
- Activity (LS174T [17]): 4.5%
- Activity (LS174T [18]): 13.9%
- Activity (LS174T [19]): 4.7%
- Activity (LS174T [20]): 4.4%
- Activity (LS174T [21]): Dde
- inhibition (LS174T [22]): Dde
- Activity (LS174T [23]): Active
- Activity (LS174T [24]): 68.3%
- Activity [25]: Non-Toxic
- Activity (Mus musculus [26]): Active
- Activity (Mus musculus [27]): Active
- Activity (Mus musculus [28]): Active
- Activity (Mus musculus [29]): Active
